The text below walks through data of US20150266857A1, “NOVEL 3-INDOL SUBSTITUTED DERIVATIVES, PHARMACEUTICAL COMPOSITIONS AND METHODS FOR USE” (iTeos Therapeutics, priority 2014, published 2015).

Structures can show the parent of a compound that is named as a salt.

T1 sequence (P48775 whole entry): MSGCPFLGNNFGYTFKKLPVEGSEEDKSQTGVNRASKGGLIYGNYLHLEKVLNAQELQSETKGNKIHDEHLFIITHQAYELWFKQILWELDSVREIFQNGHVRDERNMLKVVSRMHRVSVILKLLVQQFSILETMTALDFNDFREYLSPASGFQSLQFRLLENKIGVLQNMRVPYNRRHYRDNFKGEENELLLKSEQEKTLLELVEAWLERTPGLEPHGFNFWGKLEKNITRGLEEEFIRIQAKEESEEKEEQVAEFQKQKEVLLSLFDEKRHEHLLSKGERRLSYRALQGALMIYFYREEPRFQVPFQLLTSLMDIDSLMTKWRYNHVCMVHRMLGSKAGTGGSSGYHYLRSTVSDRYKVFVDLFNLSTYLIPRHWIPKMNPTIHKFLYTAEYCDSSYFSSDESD

One experiment concerns the target T1, human recombinant TDO2 enzyme (Homo sapiens, UniProt P48775).
T1 construct: made in house
Put plainly: Assay for TDO2 enzymatic activity determination. In kind it is biochemical. The settings on record: human recombinant TDO2, L-Trp 1 mM, kynurenine absorbance at 480 nm. As to the method: To measure the TDO2 activity, the procedure described in Dolusic et al. J. Med. Chem.; 2011, 54, […] was adapted: the reaction mixture contained (final concentrations) potassium phosphate buffer (50 mM, pH 7.5), ascorbic acid (0.25 M), methylene blue (0.125 μM), catalase (40 units/mL, from bovine liver, Sigma), and human recombinant TDO2 enzyme (prepared as described in Dolusic et al. J. Med. Chem.; 2011, 54, 5320-5334; 0.9 μg) without or with the compounds of the present invention at the indicated concentrations (total volume 112.5 μL). The reaction was initiated by the addition of 37.5 μL of L-Trp (final concentration 1 mM) at room temperature. The reaction was conducted at room temperature during one hour and stopped by the addition of 30 μL of 30% (w/v) trichloroacetic acid.
To convert N-formylkynurenine into kynurenine, the reaction mixture was incubated at 65° C. for 30 min. Then 150 μL of the reaction mixture was mixed with 120 μL of 2.5% (w/v) 4-(dimethylamino)-benzaldehyde in acetic acid and incubated for 5 min at room temperature. Kynurenine concentrations were determined by measuring the absorbance at 480 nm. A standard curve was made with pure kynurenine. The TDO activity was measured as described above using ten serial concentrations of the compounds of the present invention. Data were fitted using the Prism™ software (GraphPad Software, Inc.) using standard parameters.
Broadly, the IC50 is the concentration at which inhibition is half-maximal. Regarding `NC(=O)Cn1ncc2ccc(-c3c[nH]c4cc(F)ccc34)cc21` [Compound 2, 2-(6-(6-fluoro-1H-indol-3-yl)-1H-indazol-1-yl)acetamide], the IC50 amounted to 0.946 µM.
The same measure, in the same setting: under `Fc1ccc2c(-c3ccc4cnn(CC5CCNCC5)c4c3)c[nH]c2c1` [Compound 3, 6-(6-fluoro-1H-indol-3-yl)-1-(piperidin-4-ylmethyl)-1H-indazole hydrochloride] stands 2.12 µM; under `CC(=O)N1CCC(Cn2ncc3ccc(-c4c[nH]c5cc(F)ccc45)cc32)CC1` [Compound 4, 1-(4-((6-(6-fluoro-1H-indol-3-yl)-1H-indazol-1-yl)methyl)piperidin-1-yl)ethanone], 3.18 µM; under `NC(=O)CCn1ncc2ccc(-c3c[nH]c4cc(F)ccc34)cc21` [Compound 5, 3-(6-(6-fluoro-1H-indol-3-yl)-1H-indazol-1-yl)propanamide], 1.17 µM.
Same read-out and setting: under `Fc1ccc2c(-c3ccc4cnn(C5CCNCC5)c4c3)c[nH]c2c1` [Compound 6, 6-(6-fluoro-1H-indol-3-yl)-1-(piperidin-4-yl)-1H-indazole] stands 7.53 µM.
Still for that read-out and setting: under `CC(=O)N1CCC(n2ncc3ccc(-c4c[nH]c5cc(F)ccc45)cc32)CC1` [Compound 7, 1-(4-(6-(6-fluoro-1H-indol-3-yl)-1H-indazol-1-yl)piperidin-1-yl)ethanone] stands 13.8 µM.
For the molecule `Fc1ccc2c(-c3ccc4[nH]ncc4c3)c[nH]c2c1` [Compound 8, 5-(6-fluoro-1H-indol-3-yl)-1H-indazole], the IC50 came out at 0.609 µM.
On to `Fc1ccc2c(-c3ccc4c(cnn4CC4CCNCC4)c3)c[nH]c2c1` [Compound 10, 5-(6-fluoro-1H-indol-3-yl)-1-(piperidin-4-ylmethyl)-1H-indazole], for which the IC50 worked out at 0.427 µM.
The same measure, in the same setting: under `CC(=O)N1CCC(Cn2ncc3cc(-c4c[nH]c5cc(F)ccc45)ccc32)CC1` [Compound 11, 1-(4-((5-(6-fluoro-1H-indol-3-yl)-1H-indazol-1-yl)methyl)piperidin-1-yl)ethanone] stands 0.68 µM.
The same measure, in the same setting: under `Fc1ccc2c(-c3ccc4c(cnn4C4CCNCC4)c3)c[nH]c2c1` [Compound 13, 5-(6-fluoro-1H-indol-3-yl)-1-(piperidin-4-yl)-1H-indazole] stands 0.407 µM.
For `CC(=O)N1CCC(n2ncc3cc(-c4c[nH]c5cc(F)ccc45)ccc32)CC1` [Compound 14, 1-(4-(5-(6-fluoro-1H-indol-3-yl)-1H-indazol-1-yl)piperidin-1-yl)ethanone], the IC50 is 2.22 µM.

For the next experiment, the target named is T2, human glioblastoma A172 cells, naturally expressing hTDO2 (Homo sapiens, UniProt P48775).
T2 construct: human glioblastoma A172 cells, naturally expressing hTDO2; endogenous in cells; host or cells: human glioblastoma A172 cells (ATCC CRL-1620)
T2 sequence (P48775 whole entry): as above
The experiment is described as follows: Cellular assay for TDO2 activity, A172 cells. The settings on record: overnight incubation, kynurenine in supernatant. In kind it is cell-based. As to the method:
The compounds of formula I inhibit the activity of human TDO2 in cells that constitutively express TDO2, such as A172 cells. A172 is a cell line derived from human brain glioblastoma cells. The cells are available from the American Type Culture Collection (ATCC®) as CRL-1620™
The assay (adapted from Pilotte L et al., Proc Natl Acad Sci USA, 2012, 109(7), 2497-502) was performed in 96-well flat bottom plates seeded with human glioblastoma A172 cells, naturally expressing hTDO2 (prepared as described in Tilman et al., Mol Cancer, 2007, 17(6), 80), at a concentration of 1.25×10^4 cells/well in a final volume of 200 μL. To determine TDO, the cells were incubated overnight at 37° C. at 5% CO2 in IMDM (Invitrogen) supplemented with 2% FBS and 2% penicillin/streptomycin in the presence of the compounds of the present invention, at different concentrations.
The plates were then centrifuged 5 min at 1000 rpm, and 100 μL of the supernatant were collected in a conical plate, 30 uL of TCA 30% were added and a further centrifugated at 3000×g for 10 minutes. 100 μL of the supernatant were collected in a flat bottomed plate and 100 μL of 2% (w/v) 4-(dimethylamino)-benzaldehyde in acetic acid and incubated for 5 min at room temperature. Kynurenine concentrations were determined by measuring the absorbance at 480 nm. A standard curve was made with pure kynurenine. The TDO activity was measured as described above using ten serial concentrations of the compounds of the present invention. Data were fitted using the Prism™ software (GraphPad Software, Inc.) using standard parameters.
On to `CS(=O)(=O)N1CCC(Cc2nc3ccc(-c4c[nH]c5cc(F)ccc45)cc3o2)CC1` [Compound 119, 6-(6-fluoro-1H-indol-3-yl)-2-((1-(methylsulfonyl)piperidin-4-yl)methyl)benzo[d]oxazole], for which the concentration for half-maximal inhibition (IC50) was 1.02 µM.
Still for that read-out and setting: under `CS(=O)(=O)N1CCN(CCc2nc3ccc(-c4c[nH]c5cc(F)ccc45)cc3o2)CC1` [Compound 120, 6-(6-fluoro-1H-indol-3-yl)-2-(2-(4-(methylsulfonyl)piperazin-1-yl)ethyl)benzo[d]oxazole] stands 0.443 µM; under `Clc1ccc2[nH]cc(-c3ccc4ocnc4c3)c2c1` [Compound 121, 5-(5-chloro-1H-indol-3-yl)benzo[d]oxazole], 1.77 µM.
In turn, `CN1CCC(Cc2nc3ccc(-c4c[nH]c5cc(F)ccc45)cc3o2)CC1` [Compound 125, 6-(6-fluoro-1H-indol-3-yl)-2-((1-methylpiperidin-4-yl)methyl)benzo[d]oxazole] came in with an IC50 of 0.148 µM.
Same read-out and setting: under `CS(=O)(=O)NC1CCN(CCS(=O)(=O)NCc2nc3ccc(-c4c[nH]c5cc(F)ccc45)cc3o2)CC1` [Compound 126, N-((6-(6-fluoro-1H-indol-3-yl)benzo[d]oxazol-2-yl)methyl)-2-(4-(methylsulfonamido)piperidin-1-yl)ethanesulfonamide] stands 0.826 µM.
Molecule `CS(=O)(=O)NCc1nc2ccc(-c3c[nH]c4cc(Cl)ccc34)cc2o1` [Compound 127, N-((6-(6-chloro-1H-indol-3-yl)benzo[d]oxazol-2-yl)methyl)methanesulfonamide] had an IC50 of 3.78 µM.
`O=C1NC(=O)C(Cc2nc3ccc(-c4c[nH]c5cc(F)ccc45)cc3o2)N1` (stereo not drawn) [Compound 129, 5-((6-(6-fluoro-1H-indol-3-yl)benzo[d]oxazol-2-yl)methyl)imidazolidine-2,4-dione] yielded an IC50 of 0.225 µM.
Molecule `NC(=O)Cn1c(=O)oc2cc(-c3c[nH]c4ccc(F)cc34)ccc21` [Compound 131, 2-(6-(5-fluoro-1H-indol-3-yl)-2-oxobenzo[d]oxazol-3(2H)-yl)acetamide] came in with an IC50 of 2.38 µM.
On the same count and under the same terms, under `O=C1NC(=O)c2cc(-c3c[nH]c4cc(F)ccc34)ccc21` [Compound 132, 5-(6-fluoro-1H-indol-3-yl)isoindoline-1,3-dione] stands 0.197 µM; under `Fc1ccc2c(-c3ccc4c(c3)CNC4)c[nH]c2c1` [Compound 133, 6-fluoro-3-(isoindolin-5-yl)-1H-indole], 0.292 µM.
`O=S1(=O)NCc2ccc(-c3c[nH]c4cc(F)ccc34)cc21` [Compound 134] came in with a half-maximal inhibitory concentration (IC50) of 0.771 µM.
The same measure, in the same setting: under `O=S1(=O)NCc2cc(-c3c[nH]c4cc(F)ccc34)ccc21` [Compound 135, 5-(6-fluoro-1H-indol-3-yl)-2,3-dihydrobenzo[d]isothiazole 1,1-dioxide] stands 0.074 µM; under `O=c1oc2cc(-c3c[nH]c4cc(F)ccc34)ccc2n1C1CCNCC1` [Compound 136, 6-(6-fluoro-1H-indol-3-yl)-3-(piperidin-4-yl)benzo[d]oxazol-2(3H)-one], 0.32 µM; under `Cc1nc2cc(CO)c(-c3c[nH]c4cc(F)ccc34)cc2o1` [Compound 137, (6-(6-fluoro-1H-indol-3-yl)-2-methylbenzo[d]oxazol-5-yl)methanol], 30.7 µM.
`CN1C(=O)c2cc(-c3c[nH]c4cc(F)ccc34)ccc2S1(=O)=O` [Compound 138, 5-(6-fluoro-H-indol-3-yl)-2-methylbenzo[d]isothiazol-3(2H)-one 1,1-dioxide] yielded an IC50 of 3.68 µM.
The molecule `C[C@@H]1CN(CCc2nc3ccc(-c4c[nH]c5cc(F)ccc45)cc3o2)C[C@H](C)N1` [Compound 139, 2-(2-(cis-3,5-dimethylpiperazin-1-yl)ethyl)-6-(6-fluoro-1H-indol-3-yl)benzo[d]oxazole] yielded an IC50 of 0.383 µM.
Still for that read-out and setting: under `OC1CCN(CCc2nc3ccc(-c4c[nH]c5cc(F)ccc45)cc3o2)CC1` [Compound 140, 1-(2-(6-(6-fluoro-1H-indol-3-yl)benzo[d]oxazol-2-yl)ethyl)piperidin-4-ol] stands 0.447 µM.
Still for that read-out and setting: under `C[C@@H]1CN(CCc2nc3ccc(-c4c[nH]c5cc(F)ccc45)cc3o2)C[C@@H](C)N1` [Compound 142, (+)-2-(2-((3R,5R)-3,5-dimethylpiperazin-1-yl)ethyl)-6-(6-fluoro-1H-indol-3-yl)benzo[d]oxazole] stands 0.48 µM; under `Fc1ccc2c(-c3ccc4nc(CCN5CC6(CNC6)C5)oc4c3)c[nH]c2c1` [Compound 143, 2-(2-(2,6-diazaspiro[3.3]heptan-2-yl)ethyl)-6-(6-fluoro-1H-indol-3-yl)benzo[d]oxazole], 0.61 µM.
Regarding `C[C@H]1CN(CCc2nc3ccc(-c4c[nH]c5cc(F)ccc45)cc3o2)C[C@H](C)N1` [Compound 144, (−)-2-(2-((3S,5S)-3,5-dimethylpiperazin-1-yl)ethyl)-6-(6-fluoro-1H-indol-3-yl)benzo[d]oxazole], the IC50 was 0.46 µM.
Still for that read-out and setting: under `O=C(O)C1CN(CCc2nc3ccc(-c4c[nH]c5cc(F)ccc45)cc3o2)CCN1` (stereo not drawn) [Compound 145, 4-(2-(6-(6-fluoro-1H-indol-3-yl)benzo[d]oxazol-2-yl)ethyl)piperazine-2-carboxylic acid] stands 26 µM.
Regarding `Fc1ccc2c(-c3ccc4ccoc4c3)c[nH]c2c1` [Compound 146, 3-(benzofuran-6-yl)-6-fluoro-1H-indole], the IC50 was 0.52 µM.
